Laboratory results taken from patent publication US9763973B2, “Agent for treating HTLV-I associated myelopathy” (NAGASAKI UNIVERSITY, priority 2011, dated 2017).
“And” between values parts separate entries of the source, which are not always exact repeats. Equal values may be shown once.

Assays:
HTLV-I provirus [1] = conditions: anti-HTLV-I therapy with HDAC inhibitor; cited from earlier work
HTLV-I = conditions: in vitro; non-patent documents 4-6; cited from earlier work
HAM patients [2] = conditions: in vivo test; non-patent documents 4 and 5; cited from earlier work
[3] = test system: peripheral blood lymphoblastogenesis; assay: lymphoblastogenesis test (stimulation index to PHA), clinical test in HAM patients; type: in vivo, human
Method: (§1) Subject: 12 cases of HAM patients (9 females, 3 males, age; 49-77 years old, duration of illness; 3-52 years) (Table 1).
(§2) Test method: Sodium pentosan polysulfate was subcutaneously administered by 25 mg for the first time (0 week), 50 mg 1 week later, 100 mg once a week from the second week to the 7th week to the brachial region. The test medicament was used in 1 ml ampoule of sodium pentosan polysulfate (100 mg/ml) supplied by bene pharmaChem of Germany.
(§3) Test items: the subjective symptoms and neurological observations (including spasticity, gait time, time for descending stairs, motility dysfunction level and the like) were checked at the time of screening, week 0 (initial administration), week 8 from the start of treatment (week 1 after completion of treatment) and week 12 from the start of treatment (week 5 after completion of treatment). Similarly, general clinical tests, and immunological (serum soluble IL-2 receptor (sIL-2R), peripheral blood lymphoblastogenesis test) and virological tests (amount of peripheral blood HTLV-I provirus (real-time quantitative PCR method), anti-HTLV-I antibody titer) were performed.

[4] = test system: serum soluble IL-2 receptor (sIL-2R); assay: serum soluble IL-2 receptor (sIL-2R), clinical test in HAM patients; type: in vivo, human; conditions: for sIL-2R: individual HAM cases, same s.c. regimen
Method: as §1, §2, §3

anti-HTLV-I antibody = anti-HTLV-I antibody titer (PA method), clinical test in HAM patients; type: in vivo, human; conditions: start vs week 8, week 12 (Table 4)
Method: as §1, §2, §3

HTLV-I provirus [5] = assay: amount of peripheral blood HTLV-I provirus (real-time quantitative PCR), clinical test in HAM patients; type: in vivo, human; conditions: for HTLV-I provirus amount, average: average of 12 cases, average at start 1268; for HTLV-I provirus amount: individual HAM cases, same s.c. regimen
Method: Therefore, for virological evaluation, the amount of peripheral blood HTLV-I provirus was monitored, immunological markers predicted to vary depending on a decrease in the provirus was simultaneously monitored, and the effect of pentosan polysulfate on HTLV-I was verified. In addition, the clinical effects (lower leg motility function etc.) were evaluated simultaneously with the measurement of the virus amount, and the correlation between a decrease in the virus amount and the clinical effect was confirmed. Furthermore, the amount of HTLV-I provirus was measured before and after administration of pentosan polysulfate, and a virus, amount decreasing effect of pentosan polysulfate was confirmed, whereby the possibility of providing a causal therapy was verified. Subject: 12 cases of HAM patients (9 females, 3 males, age; 49-77 years old, duration of illness; 3-52 years) (Table 1). Test method: Sodium pentosan polysulfate was subcutaneously administered by 25 mg for the first time (0 week), 50 mg 1 week later, 100 mg once a week from the second week to the 7th week to the brachial region. The test medicament was used in 1 ml ampoule of sodium pentosan polysulfate (100 mg/ml) supplied by bene pharmaChem of Germany.

HAM patients [6] = assay: 10 m gait time, clinical test in HAM patients; type: in vivo, human; conditions: for 10 m gait: individual HAM cases, same s.c. regimen; for 10 m gait, mean value: mean of tested cases
From the text: (§4) The main symptoms of HAM are motility/gait disorders and the like. As items for the clinical evaluation of these symptoms, lower leg motility function (walking time, time for descending stairs, spasticity, motility dysfunction level etc.) tests and the like can be mentioned. By evaluating these items before and after administration of pentosan polysulfate, the treatment effect of subcutaneous injection of pentosan polysulfate on HAM was verified.
as §1, §2, §3

HAM patients [7] = assay: 30 m gait time, clinical test in HAM patients; type: in vivo, human; conditions: for 30 m gait: individual HAM cases, same s.c. regimen; for 30 m gait, mean value: mean of tested cases
From the text: as §4, §1, §2, §3

HAM patients [8] = assay: time for descending stairs (10 stairs), clinical test in HAM patients; type: in vivo, human; conditions: for descending stairs (10 stairs): individual HAM cases, same s.c. regimen; for descending stairs, mean value: mean of tested cases
From the text: as §4, §1, §2, §3

HAM patients [9] = assay: spasticity on modified Ashworth scale (MAS), clinical test in HAM patients; type: in vivo, human; conditions: individual HAM cases; same s.c. regimen; blank = spasticity absent from the start
From the text: Spasticity is one type of hypertonia, and caused by an abnormal increase in the muscle stretch reflex. Clinically, spasticity is a speed-dependent resistance to stretch, which is defined to be the state wherein the muscle is excessively contracted due to the lack of suppression from the central nervous system, which finally leads to an increase in the reflection. As a measurement method of spasticity, the Ashworth scale is well known, and its modified version by Bohannon is often used clinically (modified Ashworth scale; Bohannon R W, Smith M B: Interrater reliability of a Modified Ashworth Scale of Muscle Spasticity. Phys Ther 67: 206-207, 1987). […]
as §3

HAM patients [10] = assay: motility dysfunction level (Osame scale), clinical test in HAM patients; type: in vivo, human; conditions: 12 HAM cases; 0-13 scale; changes not found in other cases
From the text: As regards the gait disorder due to HAM-related spastic paraplegia, the gait disorder in the present specification includes not only disorder in walking but also disorder in running and ascending and descending stairs, as well as wheelchair state and bedridden state due to gait function disorders. […]
as §3, with “performed. […]” for “performed.”

HAM = conditions: recent case-control study; non-patent document 3; cited from earlier work

For `CCCC(CCC)C(=O)O` [valproic acid], the “effect on amount of peripheral blood HTLV-I provirus” value (HTLV-I provirus [1]) is given as “transiently and markedly increases the amount of peripheral blood HTLV-I provirus”.

For heparin, the “HTLV-I infection inhibitory action” value (HTLV-I) is listed as “shows an HTLV-I infection inhibitory action” and the “clinical effectiveness for HAM patients” value (HAM patients [2]) is listed as “clinically effective for HAM patients”.

In the case of sodium pentosan polysulfate, the “lymphoblastogenesis test (stimulation index to PHA)” value ([3]; individual HAM cases (table row = case no.), s.c. 25 mg wk 0, 50 mg wk 1, 100 mg weekly wk 2-7, week 8 from start) is reported as 9.2 and 12.4 and 4.7 and 7.9 and 16.3 and 14 and 13.3 and 9.4 and 3.7 and 9.7 and 11.9 and 8.2, the “lymphoblastogenesis test (stimulation index to PHA)” value ([3]; individual HAM cases, same s.c. regimen, week 12 from start (week 5 after completion)) is reported as 6.1 and 7.1 and 6.7 and 15 and 18.1 and 24.7 and 17.2 and 9.3 and 4.9 and 9.2 and 12.2 and 6.9 and the “lymphoblastogenesis test, significance of change” value ([3]; start vs week 8, week 12 (Table 2)) is reported as “significant difference was not observed”. For the same compound, the sIL-2R ([4]; week 2) was 511 pg/mL and 1462 pg/mL and 1086 pg/mL and 933 pg/mL and 1475 pg/mL and 1741 pg/mL and 1524 pg/mL and 1405 pg/mL and 2264 pg/mL and 1256 pg/mL and 1688 pg/mL and 1474 pg/mL, the sIL-2R ([4]; week 8) was 577 pg/mL and 1482 pg/mL and 904 pg/mL and 1152 pg/mL and 1475 pg/mL and 1551 pg/mL and 1460 pg/mL and 1954 pg/mL and 2420 pg/mL and 1452 pg/mL and 1774 pg/mL and 1964 pg/mL and the sIL-2R ([4]; week 12) was 627 pg/mL and 1357 pg/mL and 914 pg/mL and 1073 pg/mL and 1557 pg/mL and 1706 pg/mL and 1716 pg/mL and 1864 pg/mL and 2516 pg/mL and 1480 pg/mL and 1882 pg/mL and 1774 pg/mL. For the same compound, the “soluble IL-2 receptor (sIL-2R) test, significance of change” value ([4]; start vs weeks 2, 8, 12 (Table 3)) was “significant difference was not observed”, the “anti-HTLV-I antibody test, significance of change” value (anti-HTLV-I antibody) was “significant difference was not observed” and the “HTLV-I provirus amount, significance of change” value (HTLV-I provirus [5]; all 12 cases, week 8 from start of treatment) was “no significant difference”. For the same compound, the “average decrease in amount of HTLV-I provirus” value (HTLV-I provirus [5]; all 12 cases, week 8 from start of treatment vs start) was “about 9%”, the “HTLV-I provirus amount, average” value (HTLV-I provirus [5]; week 8) was 1153 copy number/10^4 PBMC and the “HTLV-I provirus amount, average” value (HTLV-I provirus [5]; week 12) was 1241 copy number/10^4 PBMC. The HTLV-I provirus amount (HTLV-I provirus [5]; week 8) was 1140 copy number/10^4 PBMC and 648 copy number/10^4 PBMC and 699 copy number/10^4 PBMC and 503 copy number/10^4 PBMC and 999 copy number/10^4 PBMC and 2149 copy number/10^4 PBMC and 479 copy number/10^4 PBMC and 830 copy number/10^4 PBMC and 2030 copy number/10^4 PBMC and 1621 copy number/10^4 PBMC and 837 copy number/10^4 PBMC and 1900 copy number/10^4 PBMC, the HTLV-I provirus amount (HTLV-I provirus [5]; week 12) was 1750 copy number/10^4 PBMC and 668 copy number/10^4 PBMC and 697 copy number/10^4 PBMC and 471 copy number/10^4 PBMC and 1032 copy number/10^4 PBMC and 2052 copy number/10^4 PBMC and 460 copy number/10^4 PBMC and 767 copy number/10^4 PBMC and 2380 copy number/10^4 PBMC and 1971 copy number/10^4 PBMC and 853 copy number/10^4 PBMC and 1794 copy number/10^4 PBMC and the “HTLV-I provirus amount, course after completion of administration” value (HTLV-I provirus [5]; week 5 after completion of administration (week 12)) was “a tendency of returning to the amount at the start of the treatment”. For the same compound, the 10 m gait (HAM patients [6]; week 8) was 7.5 s and 5.5 s and 15.8 s and 6.4 s and 8.9 s and 11.5 s and 6.5 s and 32.5 s and 13.9 s and 18.5 s, the 10 m gait (HAM patients [6]; week 12) was 7.1 s and 5.3 s and 16.9 s and 6.2 s and 9.7 s and 12.5 s and 6.5 s and 31.9 s and 15.8 s and 19.9 s and the “10 m gait, mean value” (HAM patients [6]; week 8, mean at start 14.7 (Table 6 in seconds)) was 12.7. For the same compound, the “10 m gait, mean value” (HAM patients [6]; week 12, mean at start 14.7) was 13.2, the 30 m gait (HAM patients [7]; week 8) was 22.1 s and 16.8 s and 52.3 s and 20.8 s and 26.7 s and 36.5 s and 20.5 s and 96.5 s and 41.6 s and the 30 m gait (HAM patients [7]; week 12) was 22 s and 16.6 s and 59.6 s and 19.8 s and 28.6 s and 38.1 s and 20.5 s and 97.5 s and 45.4 s. For the same compound, the “30 m gait, mean value” (HAM patients [7]; week 8, mean at start 41.7 (Table 7 in seconds)) was 37.1, the “30 m gait, mean value” (HAM patients [7]; week 12, mean at start 41.7) was 38.7 and the “descending stairs (10 stairs)” value (HAM patients [8]; week 8) was 4.8 seconds (2×) and 4 seconds and 17.5 seconds and 9.1 seconds (2×) and 7.4 seconds and 4.1 seconds. For the same compound, the “descending stairs (10 stairs)” value (HAM patients [8]; week 12) was 4.9 seconds and 4 seconds (3×) and 21.2 seconds and 12.4 seconds and 8.7 seconds and 8.9 seconds, the “descending stairs, mean value” (HAM patients [8]; week 8, mean at start 9.3 (Table 8 in seconds)) was 7.6 and the “descending stairs, mean value” (HAM patients [8]; week 12, mean at start 9.3) was 8.5. The “improvement of spasticity (evaluated on modified Ashworth scale (MAS))” value (HAM patients [9]) was “(+) (evaluated (+) when either lower leg improved by 1 grade or more)”, the “improvement in motility dysfunction level” value (HAM patients [10]) was “only in one case (from 6 to 5 in week 8)” and the “HTLV-I infection inhibitory action” value (HTLV-I) was “very strong HTLV-I infection inhibitory action at a low dose as compared to heparin”.

For zidovudine+lamivudine, the “effectiveness as anti-HTLV-I therapy for HAM” value (HAM) is listed as “effectiveness thereof was not verified”.
